From US6087358A (priority 1997, dated 2000)
In brackets after ≈: the same amount, converted by molar mass. Read-outs that look alike come from different tables or passages of the source.

Tests used:
[1] = test system: Mycobacterium bovis BCG (recombinant strain); test: microbe, parasite or virus in culture; format: cell-based; conditions: 6 days 37° C.; for MIC: Mycobacterium tuberculosis variant bovis BCG, BCG, 144 h, read-out: MIC, column A, 3(S) compounds
[2] = test system: Mycobacterium tuberculosis (rMTB); test: In vivo antimycobacterial activity against M. tuberculosis (rMTB) in spleens of mice; design: species or system Mycobacterium tuberculosis Erdman, in female BALB/c mice; conditions: 25 mg/kg daily oral gavage, CM-2, 10 days, control 422,866 (PA-824, 636, 1297) or 362,274 (others)
[3] = test system: Mycobacterium tuberculosis (rMTB); test: In vivo antimycobacterial activity against M. tuberculosis (rMTB) in lungs of mice; design: species or system Mycobacterium tuberculosis Erdman, in female BALB/c mice; conditions: 25 mg/kg daily oral gavage, CM-2, 10 days, control 117,258 (PA-824, 636, 1297) or 22,751 (others)
[4] = test system: Helicobacter pylori Strain 4187E; test: In vivo activity against Helicobacter pylori strain 4187E in mice; design: species or system in outbred female white mice; conditions: oral gavage, four days
Excerpt: Outbred female white mice (20 grams) were infected by oral gavage with 10^7 -10^8 colony forming units of H. pylori strain 4187E (originally isolated from a patient with a duodenal ulcer). […] Treatment continued for four days. Clarithromycin, administered at the same concentration and for the same duration, was included as a positive control. One group of animals also received an equal volume of formulation vehicle alone, to provide a negative control.
Five days after cessation of treatment, all animals were sacrificed, the stomachs were removed, opened, and the contents washed out. The entire mucosal surface was then spread evenly over the surface of an agar plate containing antibiotics appropriate for the prevention of growth of microorganisms other than Helicobacter spp. After seven days incubation under microaeropilic conditions at 37° C., culture plates were evaluated for bacterial growth.

[5] = test system: Helicobacter pylori; test: In vitro inhibition of Helicobacter pylori (broth microdilution MIC); conditions: for MIC: Helicobacter pylori
[6] = test system: Clostridium difficile ATCC 17857; test: In vitro inhibition of Clostridium difficile (Oxyrase broth microdilution MIC); format: cell-based; conditions: Clostridioides difficile, ATCC17857; Clostridium difficile ATCC 17857, Oxyrase broth; read-out: MIC, column D, 3(S) compounds
[7] = test system: Cryptosporidium parvum; test: Inhibition of Cryptosporidium parvum (ELISA, infected HCT-8 monolayers); format: cell-based; conditions: Cryptosporidium parvum, HCT-8, 48 h, read-out: Percent Inhibition of C. parvum; for inhibition at 25 µg/mL: 25 μg/mL; for inhibition at 50 µg/mL: 50 μg/mL; for inhibition at 100 µg/mL: 100 μg/mL; for inhibition at 200 µg/mL: 200 μg/mL
Description: Susceptibility testing against Cryptosporidium was performed according to published procedures (K. Woods, M. Nesterenko, S. Upton, "Development of a microtiter ELISA to quantify development of Cryptosporidium parvum in vitro," FEMS Microbiology Letters, 128:89-94 (1995).
Compounds were solubilized to a concentration of 100 mg/mL in 100% DMSO. DMSO solutions of test compounds were added to the test wells of a microplate at a volume that produced a final concentration of DMSO of 0.2%. Monolayers of human ileocecal adenocarcinoma cells (HCT-8) were prepared by growth in RPMI 1640 medium in 96-Well tissue culture trays for 24 h. Oocysts of C. parvum were allowed to excyst in 10% bleach for 10 min prior to use. Monolayers were then infected with 2-3×10^4 oocysts/well and incubated in the presence or absence of compound for 48 h at 35° C. in 5% CO2 and 95% humidity. Background consisted of wells containing killed oocysts (freeze thaw cycle following 30 sec exposure to liquid nitrogen). Growth control wells were infected with 2-3×10^4 oocysts/well in the absence of test compounds. At the end of incubation, wells were washed and fixed by adding 100 uL of 4% formalin in phosphate buffered saline (pH 7.3) per well for 2 h. After blocking with 1% bovine serum albumin, and 0.002% Tween 20, 50 uL of rat anti-Cryptosporidium membrane protein antiserum was added. After 30 min, wells were washed in PBS and 50 uL of secondary antibody (goat anti-rat antibody conjugated with horseradish peroxidase) was added. After 20-30 min, wells were washed again in PBS and 50 uL of 3,3',5,5'-tetramethylbenzidine solution was added. Plates were allowed to develop for 10-15 min and the optical density was read at 630 nm. Percent inhibition was calculated by comparing the optical density of the drug treated group to that of the untreated control.

[8] = 72 h, read-out: MIC against Helicobacter pylori, strain 17 (Table 5A)
[9] = 72 h, read-out: MIC against Helicobacter pylori, strain 19 (Table 5A)
[10] = 72 h, read-out: MIC against Helicobacter pylori, strain 20 (Table 5A)
[11] = 72 h, read-out: MIC against Helicobacter pylori, strain 40 (Table 5A)
[12] = 72 h, read-out: MIC against Helicobacter pylori, strain 43 (Table 5A)
[13] = 72 h, read-out: MIC against Helicobacter pylori, strain 76 (Table 5A)
[14] = ATCC43504, 72 h, read-out: MIC against Helicobacter pylori, strain ATCC 43504 (Table 5A)

| Molecule | Average RLUs, M. tuberculosis (rMTB) in spleens [2] | Average RLUs, M. tuberculosis (rMTB) in lungs [3] | MIC [5, 8] [µg/mL] | MIC [5, 9] [µg/mL] | MIC [5, 10] [µg/mL] | MIC [5, 11] [µg/mL] | MIC [5, 12] [µg/mL] | MIC [5, 13] [µg/mL] | MIC [5, 14] [µg/mL] | MIC [6] [µg/mL] | MIC [1] [µg/mL] | other results |
| --- | --- | --- | --- | --- | --- | --- | --- | --- | --- | --- | --- | --- |
| 4-Bromobenzyl Carbamate of 3S 3-Hydroxy-6-nitro-3,4-dihydro-[2-1b]imidazopyran [PA-1324] | 85,130 RLUs | 1,612 RLUs |  |  |  |  |  |  |  |  |  | MIC, column A, 3(S) compounds [1]: 0.015 |
| CC[C@H]1OC(=O)[C@H](C)[C@@H](O[C@H]2C[C@@](C)(OC)[C@@H](O)[C@H](C)O2)[C@H](C)[C@@H](O[C@@H]2O[C@H](C)C[C@H](N(C)C)[C@H]2O)[C@](C)(OC)C[C@@H](C)C(=O)[C@H](C)[C@@H](O)[C@]1(C)O [Clarithromycin, reference compound] |  |  | 0.016 (≈ 0.0214 µM) | 8 (≈ 10.7 µM) | 8 (≈ 10.7 µM) | 0.016 (≈ 0.0214 µM) | 0.008 (≈ 0.0107 µM) | 0.032 (≈ 0.0428 µM) | 0.06 (≈ 0.0802 µM) |  |  | % Eradication ([4]; twice daily 5 mg/kg): 0%; % Eradication ([4]; twice daily 50 mg/kg): 100%; MICs of control drugs relative to expected values ([5]; H. pylori ATCC 43): within the expected values; MIC ([5]; 72 h, read-out: MIC against Helicobacter pylori, strain B40, Met-S, Clar-S (Table 5B)): < 0.015 µg/mL; MIC ([5]; 72 h, read-out: MIC against Helicobacter pylori, strain B76, Met-R, Clar-S (Table 5B)): < 0.015 µg/mL; MIC ([5]; 72 h, read-out: MIC against Helicobacter pylori, strain C1649, Met-R, Clar-R (Table 5B)): > 4 µg/mL; MIC ([5]; 72 h, read-out: MIC against Helicobacter pylori, strain C11403, Met-S, Clar-R (Table 5B)): 4 µg/mL (≈ 5.35 µM); MIC ([5]; 72 h, read-out: MIC against Helicobacter pylori, strain C19765 (Table 5B)): < 0.015 µg/mL; MIC ([5]; 72 h, read-out: MIC against Helicobacter pylori, strain RD26, Met-S, Clar-S (Table 5B)): 0.03 µg/mL (≈ 0.0401 µM); MIC ([5]; 72 h, read-out: MIC against Helicobacter pylori, strain rd26, Met-S, Clar-S (Table 5B)): 0.03 µg/mL (≈ 0.0401 µM); MIC ([5]; ATCC43504, 72 h, read-out: MIC against Helicobacter pylori, strain ATCC 43504, Met-R, Clar-S (Table 5B)): 0.03 µg/mL (≈ 0.0401 µM); MIC ([5]; ATCC43526, 72 h, read-out: MIC against Helicobacter pylori, strain ATCC 43526, Met-R, Clar-S (Table 5B)): < 0.015 µg/mL; MIC ([5]; ATCC43579, 72 h, read-out: MIC against Helicobacter pylori, strain ATCC 43579, Met-S, Clar-S (Table 5B)): < 0.015 µg/mL; MIC ([5]; ATCC43629, 72 h, read-out: MIC against Helicobacter pylori, strain ATCC 43629, Met-S, Clar-S (Table 5B)): 0.03 µg/mL (≈ 0.0401 µM) |
| O=[N+]([O-])c1cn2c(n1)OC[C@@H](OCc1ccc(C(F)(F)F)cc1)C2 [PA-636, 3S 4-(Trifluromethyl)benzyloxy-6-nitro-2H-3,4-dihydo-[2-1b]imidazopyran] | 91,377 RLUs | 5,790 RLUs |  |  |  |  |  |  |  | 3.12 (≈ 9.09 µM) | 0.5 (≈ 1.46 µM) | inhibition at 25 µg/mL [7]: 14.5%; inhibition at 50 µg/mL [7]: 9.4%; inhibition at 100 µg/mL [7]: 21%; inhibition at 200 µg/mL [7]: 39% |
| O=[N+]([O-])c1cn2c(n1)OC[C@@H](OCc1ccccc1)C2 [PA-651] |  |  |  |  |  |  |  |  |  | 3.12 (≈ 11.3 µM) | > 5 |  |
| O=[N+]([O-])c1cn2c(n1)OC[C@@H](OCc1c(F)c(F)c(F)c(F)c1F)C2 [PA-652] |  |  |  |  |  |  |  |  |  | 3.12 (≈ 8.54 µM) | > 5 |  |
| O=[N+]([O-])c1cn2c(n1)OC[C@@H](OCc1ccc(F)cc1F)C2 [PA-654] |  |  |  |  |  |  |  |  |  | 3.12 (≈ 10 µM) | > 5 |  |
| O=[N+]([O-])c1cn2c(n1)OC[C@@H](OCc1ccc(F)cc1)C2 [PA-655] |  |  |  |  |  |  |  |  |  | 6.25 (≈ 21.3 µM) | > 5 |  |
| O=[N+]([O-])c1cn2c(n1)OC[C@@H](OCc1cccc(OCc3ccccc3)c1)C2 [PA-820] |  |  |  |  |  |  |  |  |  | 3.12 (≈ 8.18 µM) | < 5 |  |
| O=C(N[C@@H]1COc2nc([N+](=O)[O-])cn2C1)c1ccc(OCc2ccccc2)cc1 [PA-1125] |  |  | > 25 | 0.8 (≈ 2.03 µM) | 0.8 (≈ 2.03 µM) | 1.5 (≈ 3.8 µM) | 1.5 (≈ 3.8 µM) | > 25 | > 25 | 1.5 (≈ 3.8 µM) | 0.06 (≈ 0.152 µM) |  |
| CCCCCCCCC(=O)N[C@@H]1COc2nc([N+](=O)[O-])cn2C1 [PA-1139] |  |  | > 25 | 1.5 (≈ 4.62 µM) | 0.8 (≈ 2.47 µM) | 0.8 (≈ 2.47 µM) | 1.5 (≈ 4.62 µM) | 25 (≈ 77.1 µM) | > 25 | 3.12 (≈ 9.62 µM) | 0.06 (≈ 0.185 µM) | inhibition at 25 µg/mL [7]: -13%; inhibition at 50 µg/mL [7]: -3%; inhibition at 100 µg/mL [7]: 56%; inhibition at 200 µg/mL [7]: 98.9% |
| CCCCCCCCc1ccc(CO[C@@H]2COc3nc([N+](=O)[O-])cn3C2)cc1 [PA-1142] |  |  | > 25 | 0.4 (≈ 1.03 µM) | 0.8 (≈ 2.06 µM) | 1.5 (≈ 3.87 µM) | 0.4 (≈ 1.03 µM) | 3.12 (≈ 8.05 µM) | > 25 | 1.5 (≈ 3.87 µM) | 0.06 (≈ 0.155 µM) |  |
| O=C(Nc1ccc(C(F)(F)F)cc1)O[C@@H]1COc2nc([N+](=O)[O-])cn2C1 [PA-1327, 4-(Trifluoromethyl)phenyl Carbamate of 3S Hydroxy-6-nitro-2H-3,4-dihydo-[2-1b]imidazopyran] | 68,362 RLUs | 1,561 RLUs |  |  |  |  |  |  |  |  | 0.25 (≈ 0.672 µM) |  |
| O=C(NCc1ccc(OC(F)(F)F)cc1)O[C@@H]1COc2nc([N+](=O)[O-])cn2C1 [PA-1328, 4-(Trifluoromethoxy)benzyl Carbamate of 3S Hydroxy-6-nitro-2H-3,4-dihydo-[2-1b]imidazopyran] | 251,264 RLUs | 3,000 RLUs |  |  |  |  |  |  |  |  | 0.03 (≈ 0.0746 µM) |  |
